Tested on: human integrin α4
Test: Inhibition of human integrin α4 protein levels by antisense oligonucleotides (LIPOFECTIN, flow cytometry with CD49d-FITC) in A375 melanoma cells
Assay type: cell-based
Set-up: % Inhib.: tested at 200 nM
Details: for % Control (integrin α4 protein) / % Inhib (integrin α4 protein): Table 1, 200 nM oligonucleotide, 6 ug/ml LIPOFECTIN; for inhibition (Example 11): Example 11 assay, dose not stated; for % CONTROL 48 hr / % INHIB 48 hr / % CONTROL 72 hr / % INHIB 72 HR: Table 2, A375
Excerpt: Integrin α4 protein levels can be quantitated in a variety of ways well known in the art, such as immunoprecipitation, Western blot analysis (immunoblotting), ELISA or fluorescence-activated cell sorting (FACS). Antibodies directed to integrin α4 can be identified and obtained from a variety of sources, such as the MSRS catalog of antibodies (Aerie Corporation, Birmingham, Mich.), or can be prepared via conventional antibody generation methods.
Target sites are indicated by nucleotide numbers, as given in the sequence source reference (GenBank accession no. L12002), to which the oligonucleotide binds. All compounds in Table 1 are 18 nucleotides in length, with a phosphorothioate backbone and a centered 10-base deoxynucleotide gap flanked by 2'-methoxyethoxy (2'MOE) wings. Human A375 melanoma cells (American Type Culture Collection, Manassas, Va.) were plated at 2000 cells/cm^2 two days before oligonucleotide treatment. Cells were treated with oligonucleotides at a dose of 200 nM oligonucleotide and 6 ug/ml LIPOFECTIN for four hours. Cells were incubated overnight and harvested with 2 mM EDTA in PBS. Cells were washed in 2% bovine serum albumin, 0.2% sodium azide in D-PBS at 4° C. Cells were centrifuged at 200×g, and the supernatant was decanted. […] Antibodies were incubated with the cells for 30 minutes at 4° C. in the dark, under gentle agitation. Cells were washed again as above and then resuspended in 0.3 ml of FacsFlow buffer with 0.5% formaldehyde. Cells were analyzed on Becton Dickinson FACScan. Results are expressed as percentage of control expression based on mean fluorescence intensity.
Cells were harvested with trypsin at 48 and 72 hours after oligonucleotide treatment and stained with 2 ug/ml CD49d-FITC as in the previous example.
Where backbones are mixed, linkages are shown as "s" for phosphorothioate (P=S or PS) and "o" for phosphodiester (P=O or PO). Where target region is indicated as `M62841,` oligonucleotides are targeted to the promotor region whose sequence is described in GenBank Accession No. M62841. Remaining oligonucleotides are targeted to the sequence described in Genbank Accession No. L12002 and their target sites on the L12002 sequence are indicated.
Target sites refer to nucleotide numbers on the target sequence (GenBank Accession No. L12002) to which the oligonucleotides hybridize.
Oligonucleotides were synthesized as "gapmers" consisting of a 9-nucleotide region of deoxynucleotides flanked by three 2'-O-methoxyethyl(2'-MOE) nucleotides on the 5' end and eight 2'-MOE nucleotides on the 3' end. 2'-MOE nucleotides are shown in bold in the table. Oligonucleotides were synthesized with phosphorothioate backbones throughout, and all cytosines are 5-methylcytosines.

[1] = Table 24, A375 cells, lipofectin, as Example 8

24463 (TACACAAACACTCTTCCT; chemistry not given here) [compound 24463]
% Control (integrin α4 protein) (A375 cells): 101%

107251 (antisense CCTTGCATGAAGACATAATA; chemistry not given here) [compound 107251]
% Control [1]: 40%

24477 (TCCATTCTCTCAATTTGA; chemistry not given here) [compound 24477]
inhibition (Example 11): ≥ 40% | % Control (integrin α4 protein) (A375 cells): 43% | % CONTROL 48 hr (50 nM): 56% | % INHIB 48 hr (50 nM): 44% | % CONTROL 72 hr (50 nM): 72% | % INHIB 72 HR (50 nM): 28% | % CONTROL 48 hr (100 nM): 47% | % INHIB 48 hr (100 nM): 53% | % CONTROL 72 hr (100 nM): 67% | % INHIB 72 HR (100 nM): 33% | % CONTROL 48 hr (200 nM): 34% | % INHIB 48 hr (200 nM): 66% | % CONTROL 72 hr (200 nM): 44% | % INHIB 72 HR (200 nM): 56% | % CONTROL 48 hr (400 nM): 35% | % INHIB 48 hr (400 nM): 65% | % CONTROL 72 hr (400 nM): 53% | % INHIB 72 HR (400 nM): 47% | % Control (Table 6, 10 nM): 83% | % Inhib. (Table 6, 10 nM): 17% | % Control (Table 6, 30 nM): 80% | % Inhib. (Table 6, 30 nM): 20% | % Control (Table 6, 100 nM): 63% | % Inhib. (Table 6, 100 nM): 37% | % Control (Table 6, 300 nM): 33% | % Inhib. (Table 6, 300 nM (highest dose)): 67%

24740 (GAAGGCCCCTGGGGAACATT; phosphorothioate deoxy, further chemistry not given here) [compound 24740]
% Control (Table 4, 10 nM): 122% | % Control (Table 4, 30 nM): 119% | % Control (Table 4, 100 nM): 106% | % Control (Table 4, 300 nM): 88% | % Inhib. (Table 4, 300 nM (highest dose)): 12%

107260 (antisense TTTGCCAGTTTGGCCTATAA; chemistry not given here) [compound 107260]
% Control [1]: 50%

24445 (CCCGGGTTCGCGCCTCGC; chemistry not given here) [compound 24445]
% Control (integrin α4 protein) (A375 cells): 73% | % Inhib (integrin α4 protein) (A375 cells): 27%

107238 (antisense TCCTTGCCCTTATATGAGAA; chemistry not given here) [compound 107238]
% Control [1]: 49%

24470 (TATCTGCATCAATTTGTC; chemistry not given here) [compound 24470]
% Control (integrin α4 protein) (A375 cells): 83% | % Inhib (integrin α4 protein) (A375 cells): 17%

24451 (CCACTGATTGTCTCTCTC; chemistry not given here) [compound 24451]
inhibition (Example 11): ≥ 40% | % Control (integrin α4 protein) (A375 cells): 51% | % CONTROL 48 hr (50 nM): 63% | % INHIB 48 hr (50 nM): 37% | % CONTROL 48 hr (100 nM): 44% | % INHIB 48 hr (100 nM): 56% | % CONTROL 48 hr (200 nM): 34% | % INHIB 48 hr (200 nM): 66% | % CONTROL 48 hr (400 nM): 44% | % INHIB 48 hr (400 nM): 56% | % Control (Table 6, 10 nM): 96% | % Control (Table 6, 30 nM): 77% | % Inhib. (Table 6, 30 nM): 23% | % Control (Table 6, 100 nM): 66% | % Inhib. (Table 6, 100 nM): 34% | % Control (Table 6, 300 nM): 35% | % Inhib. (Table 6, 300 nM (highest dose)): 65%

107241 (antisense GATACTGAGGTCCTCTTCCG; chemistry not given here) [compound 107241]
% Control [1]: 36%

107247 (antisense AAGAAGTCCTTAATCATCAT; chemistry not given here) [compound 107247]
% Control [1]: 65% | % Inhib. [1]: 35%

107242 (antisense TGAGATCAACAGAAGTACAA; chemistry not given here) [compound 107242]
% Control [1]: 44%

107239 (antisense ACTTCCTTGCCCTTATATGA; chemistry not given here) [compound 107239]
% Control [1]: 29%

26644 (TTTCCATTCTCTCAATTTGA; phosphorothioate, 2'-MOE/deoxy, further chemistry not given here) [compound 26644]
inhibition (Example 11): ≥ 40% | % Control (Table 6, 10 nM): 99% | % Control (Table 6, 30 nM): 94% | % Control (Table 6, 100 nM): 78% | % Inhib. (Table 6, 100 nM): 22% | % Control (Table 6, 300 nM): 48% | % Inhib. (Table 6, 300 nM (highest dose)): 52%

107229 (antisense AGTCCGCAGAGCGCGGGATG; chemistry not given here) [compound 107229]
% Control [1]: 104%

107232 (antisense CCGGTTTCTGCCGCCGAGCC; chemistry not given here) [compound 107232]
% Control [1]: 83% | % Inhib. [1]: 17%

107256 (antisense GAGGCAAGCACATATGGTAA; chemistry not given here) [compound 107256]
% Control [1]: 45%
